As a reminder, the IC50 is the midpoint of a concentration-inhibition curve.

The target in test [1] is Neutrophil collagenase (Homo sapiens, UniProt P22894). The test can be described thus: Inhibition of human recombinant matrix metalloprotease-8 (hMMP-8).
The target of test [2] is T1, Interstitial collagenase (Homo sapiens, UniProt P03956).
T1 sequence (P03956 whole entry): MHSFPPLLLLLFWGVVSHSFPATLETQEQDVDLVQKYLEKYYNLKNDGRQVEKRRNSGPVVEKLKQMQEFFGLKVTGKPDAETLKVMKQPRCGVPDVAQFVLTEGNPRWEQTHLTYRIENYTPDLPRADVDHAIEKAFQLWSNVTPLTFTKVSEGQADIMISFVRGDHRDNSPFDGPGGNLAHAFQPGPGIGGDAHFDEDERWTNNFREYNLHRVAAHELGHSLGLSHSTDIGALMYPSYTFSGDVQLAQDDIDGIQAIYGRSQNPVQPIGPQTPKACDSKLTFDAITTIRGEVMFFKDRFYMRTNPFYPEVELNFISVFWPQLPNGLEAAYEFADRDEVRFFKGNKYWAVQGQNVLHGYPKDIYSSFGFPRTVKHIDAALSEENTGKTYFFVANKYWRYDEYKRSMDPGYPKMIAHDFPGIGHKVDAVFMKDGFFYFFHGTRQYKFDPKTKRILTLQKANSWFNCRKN
In words: Inhibition of human recombinant matrix metalloprotease-1 (hMMP-1).

In test [3] the target is Collagenase 3 (Homo sapiens, UniProt P45452). In words: Inhibition of human recombinant matrix metalloprotease-13 (hMMP-13).

Some results are limits rather than exact numbers.

Sequence of Neutrophil collagenase (P22894 whole entry): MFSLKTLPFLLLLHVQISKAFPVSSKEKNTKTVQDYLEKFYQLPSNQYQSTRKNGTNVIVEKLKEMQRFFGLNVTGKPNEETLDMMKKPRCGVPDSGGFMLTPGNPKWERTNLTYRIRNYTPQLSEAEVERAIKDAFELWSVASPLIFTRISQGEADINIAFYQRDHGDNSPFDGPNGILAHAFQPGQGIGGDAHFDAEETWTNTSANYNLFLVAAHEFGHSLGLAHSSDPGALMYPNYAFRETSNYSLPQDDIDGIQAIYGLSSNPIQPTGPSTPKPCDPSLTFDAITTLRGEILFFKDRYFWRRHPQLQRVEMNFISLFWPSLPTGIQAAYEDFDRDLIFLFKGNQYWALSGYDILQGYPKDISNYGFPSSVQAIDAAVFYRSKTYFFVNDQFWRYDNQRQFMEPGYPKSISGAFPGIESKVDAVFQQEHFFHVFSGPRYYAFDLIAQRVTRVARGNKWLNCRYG

Turning to `O=S(=O)(c1ccc(Sc2ccccc2)cc1)C1CCCC(S)C1` (centres undefined), the IC50 was 50 nM in test [1] and greater than 10000 nM in test [2]. The like results for `COc1ccc(S(=O)(=O)C2CCCC(S)C2)cc1` (centres undefined) were, in that order, 585 nM and 1000 nM.

As for `O=S(=O)(c1ccc(Oc2ccccc2)cc1)C1CCCC(S)C1` (centres undefined), the results for the half-inhibitory concentration (IC50) in test [1], in test [2] and in test [3] were 8 nM, 1700 nM and 1 nM, respectively.

With `COc1ccc(S(=O)(=O)CCCS)cc1`, in test [1], the IC50 was 1100 nM. In the case of `COc1ccc(S(=O)(=O)C2CCC(S)C2)cc1` (centres undefined), in test [2], the concentration for half-maximal inhibition (IC50) is greater than 10000 nM.

The values are drawn from ChEMBL document CHEMBL1131762, “Synthesis and identification of conformationally constrained selective MMP inhibitors” (Bioorg Med Chem Lett, 1999).
